Structures are written as SMILES. ≈ marks a conversion by molar mass, not a printed value. Where two headings read alike, the source gives them in different places. Where only a bound is given, the exact number is not on record here.

Test [1] has as its system Staphylococcus aureus, MRSA (ATCC 33591). Put plainly: Antibacterial MIC assay (microbroth dilution, CLSI). Format: cell-based. The note with it: read-out: MIC Staphylococcus aureus, MRSA (ATCC 33591). From the text: (§1) All MIC testing of bacteria followed the Clinical and Laboratory Standards Institute (CLSI) guidelines for antimicrobial testing of aerobic bacteria (Methods for Dilution Antimicrobial Susceptibility Tests for Bacteria that Grow Aerobically; Approved Standard—Tenth Edition, M07-A10; Performance Standards for Antimicrobial Susceptibility Testing; Twenty-fifth Informational Supplement, M100-S25).
(§2) Briefly, the microbroth dilution MIC method was used to quantitatively measure the in vitro antibacterial activity of a compound against a given bacterial isolate. The following bacterial strains were evaluated: Staphylococcus aureus, MRSA (ATCC 33591) and Streptococcus pneumoniae (ATCC 49619). Bacteria were grown in cation-adjusted Mueller-Hinton broth, with additions as required per species growth requirements (e.g. 3% lysed horse blood for fastidious organisms such as S. pneumoniae). A direct colony suspension in saline was prepared from colonies on an overnight agar plate to achieve a turbidity equivalent to 0.5 McFarland standard, which was subsequently diluted into the assay plate to achieve 5×10^5 CFU/mL. Assays plates were prepared by 2-fold dilution of compound across the plate and included a positive growth control.

In test [2] the test system is Streptococcus pneumoniae (ATCC 49619). The description is as above. Format: cell-based.
Description: as §1
as §2, with “The following bacterial strains were evaluated: Staphylococcus aureus, MRSA (ATCC 33591) and Streptococcus pneumoniae (ATCC 49619).” left out

The mark [3] stands for this setting: ATCC49619, read-out: MIC Streptococcus pneumoniae (ATCC 49619).

As for `C=C[C@]1(C)C[C@@H](OC(=O)COc2ccc3c(c2)COB3O)[C@]2(C)[C@H](C)CC[C@]3(CCC(=O)[C@H]32)[C@@H](C)[C@@H]1O` [Compound 32, (3aR,4R,5R,7S,8S,9R,9aS,12R)-8-hydroxy-4,7,9,12-tetramethyl-3-oxo-7-vinyldecahydro-4,9a-propanocyclopenta[8]annulen-5-yl 2-((1-hydroxy-1,3-dihydrobenzo[c][1,2]oxaborol-5-yl)oxy)acetate], the figures for the MIC in test [1] and in test [2] (setting [3]) were under 0.25 µg/mL and 0.5 to 2 µg/mL (≈ 0.98 to 3.92 µM), respectively.

In the case of `C=C[C@]1(C)C[C@@H](OC(=O)COc2ccc3c(c2Cl)B(O)OC3)[C@]2(C)[C@H](C)CC[C@]3(CCC(=O)[C@H]32)[C@@H](C)[C@@H]1O` [Compound 6, (3aR,4R,5R,7S,8S,9R,9aS,12R)-8-hydroxy-4,7,9,12-tetramethyl-3-oxo-7-vinyldecahydro-4,9a-propanocyclopenta[8]annulen-5-yl 2-((7-chloro-1-hydroxy-1,3-dihydrobenzo[c][1,2]oxaborol-6-yl)oxy)acetate], the MIC in test [1] is under 0.25 µg/mL; in test [2] (setting [3]) it was 0.5 to 2 µg/mL (≈ 0.918 to 3.67 µM).

Regarding `C=C[C@]1(C)C[C@@H](OC(=O)CNc2ccc3c(c2CN)B(O)OC3)[C@]2(C)[C@H](C)CC[C@]3(CCC(=O)[C@H]32)[C@@H](C)[C@@H]1O` [Compound 49, (3aR,4R,5R,7S,8S,9R,9aS,12R)-8-hydroxy-4,7,9,12-tetramethyl-3-oxo-7-vinyldecahydro-4,9a-propanocyclopenta[8]annulen-5-yl (7-(aminomethyl)-1-hydroxy-1,3-dihydrobenzo[c][1,2]oxaborol-6-yl)glycinate], the MIC in test [1] and in test [2] (setting [3]) was 0.5 to 2 µg/mL (≈ 0.929 to 3.71 µM) each time.

On to `C=C[C@]1(C)C[C@@H](OC(=O)COc2c(F)cc3c(c2F)B(O)OC3)[C@]2(C)[C@H](C)CC[C@]3(CCC(=O)[C@H]32)[C@@H](C)[C@@H]1O` [Compound 5, (3aR,4R,5R,7S,8S,9R,9aS,12R)-8-hydroxy-4,7,9,12-tetramethyl-3-oxo-7-vinyldecahydro-4,9a-propanocyclopenta[8]annulen-5-yl 2-((5,7-difluoro-1-hydroxy-1,3-dihydrobenzo[c][1,2]oxaborol-6-yl)oxy)acetate], for which the MIC in test [1] and in test [2] (setting [3]) was under 0.25 µg/mL in each case.

As for `C=C[C@]1(C)C[C@@H](OC(=O)COc2cc(C)c3c(c2)B(O)OC3)[C@]2(C)[C@H](C)CC[C@]3(CCC(=O)[C@H]32)[C@@H](C)[C@@H]1O` [Compound 11, (3aR,4R,5R,7S,8S,9R,9aS,12R)-8-hydroxy-4,7,9,12-tetramethyl-3-oxo-7-vinyldecahydro-4,9a-propanocyclopenta[8]annulen-5-yl 2-((1-hydroxy-4-methyl-1,3-dihydrobenzo[c][1,2]oxaborol-6-yl)oxy)acetate], the MIC in test [1] and in test [2] (setting [3]) was under 0.25 µg/mL in each case.

As for `C=C[C@]1(C)C[C@@H](OC(=O)NCc2ccc3c(c2F)B(O)OC3)[C@]2(C)[C@H](C)CC[C@]3(CCC(=O)[C@H]32)[C@@H](C)[C@@H]1O` [Compound 57, (3aR,4R,5R,7S,8S,9R,9aS,12R)-8-hydroxy-4,7,9,12-tetramethyl-3-oxo-7-vinyldecahydro-4,9a-propanocyclopenta[8]annulen-5-yl ((7-fluoro-1-hydroxy-1,3-dihydrobenzo[c][1,2]oxaborol-6-yl)methyl)carbamate], the MIC in test [1] was under 0.25 µg/mL; in test [2] (setting [3]) it was 0.5 to 2 µg/mL (≈ 0.948 to 3.79 µM).

Take `C=C[C@]1(C)C[C@@H](OC(=O)COc2ccc3c(c2)B(O)OC3(C)C)[C@]2(C)[C@H](C)CC[C@]3(CCC(=O)[C@H]32)[C@@H](C)[C@@H]1O` [Compound 20, (3aR,4R,5R,7S,8S,9R,9aS,12R)-8-hydroxy-4,7,9,12-tetramethyl-3-oxo-7-vinyldecahydro-4,9a-propanocyclopenta[8]annulen-5-yl 2-((1-hydroxy-3,3-dimethyl-1,3-dihydrobenzo[c][1,2]oxaborol-6-yl)oxy)acetate]: the MIC in test [1] was under 0.25 µg/mL; in test [2] (setting [3]), 0.5 to 2 µg/mL (≈ 0.929 to 3.71 µM).

With `C=C[C@]1(C)C[C@@H](OC(=O)COc2ccc3c(c2C)B(O)N(C(=O)OC)N=C3)[C@]2(C)[C@H](C)CC[C@]3(CCC(=O)[C@H]32)[C@@H](C)[C@@H]1O` [Compound 94, Methyl 1-hydroxy-7-(2-(((3aR,4R,5R,7S,8S,9R,9aS,12R)-8-hydroxy-4,7,9,12-tetramethyl-3-oxo-7-vinyldecahydro-4,9a-propanocyclopenta[8]annulen-5-yl)oxy)-2-oxoethoxy)-8-methylbenzo[d][1,2,3]diazaborinine-2(1H)-carboxylate], the values for the MIC in test [1] and in test [2] (setting [3]) were under 0.25 µg/mL and 0.5 to 2 µg/mL (≈ 0.841 to 3.36 µM), respectively.

On to `C=C[C@]1(C)C[C@@H](OC(=O)COc2ccc3c(c2)B(O)N(C(C)=O)N=C3)[C@]2(C)[C@H](C)CC[C@]3(CCC(=O)[C@H]32)[C@@H](C)[C@@H]1O` [Compound 87, (3aR,4R,5R,7S,8S,9R,9aS,12R)-8-hydroxy-4,7,9,12-tetramethyl-3-oxo-7-vinyldecahydro-4,9a-propanocyclopenta[8]annulen-5-yl 2-((2-acetyl-1-hydroxy-1,2-dihydrobenzo[d][1,2,3]diazaborinin-7-yl)oxy)acetate], for which the MIC in test [1] and in test [2] (setting [3]) was under 0.25 µg/mL throughout.

As to `C=C[C@]1(C)C[C@@H](OC(=O)COc2cc(CN)c3c(c2)B(O)OC3)[C@]2(C)[C@H](C)CC[C@]3(CCC(=O)[C@H]32)[C@@H](C)[C@@H]1O.Cl` [Compound 12, (3aR,4R,5R,7S,8S,9R,9aS,12R)-8-hydroxy-4,7,9,12-tetramethyl-3-oxo-7-vinyldecahydro-4,9a-propanocyclopenta[8]annulen-5-yl 2-((4-(aminomethyl)-1-hydroxy-1,3-dihydrobenzo[c][1,2]oxaborol-6-yl)oxy)acetate Hydrochloride], the MIC is under 0.25 µg/mL in test [1] (microbroth dilution, cation-adjusted Mueller-Hinton broth, 35° C. for 16-20 hours) and under 0.25 µg/mL in test [2] (ATCC49619, microbroth dilution, 3% lysed horse blood, 35° C. for 16-20 hours, read-out: MIC Streptococcus pneumoniae (ATCC 49619)).

For `C=C[C@]1(C)C[C@@H](OC(=O)COc2ccc3c(c2F)B(O)ON=C3)[C@]2(C)[C@H](C)CC[C@]3(CCC(=O)[C@H]32)[C@@H](C)[C@@H]1O` [Compound 97, (3aR,4R,5R,7S,8S,9R,9aS,12R)-8-hydroxy-4,7,9,12-tetramethyl-3-oxo-7-vinyldecahydro-4,9a-propanocyclopenta[8]annulen-5-yl 2-((8-fluoro-1-hydroxy-1H-benzo[d][1,2,6]oxazaborinin-7-yl)oxy)acetate], the MIC in test [1] was under 0.25 µg/mL; in test [2] (setting [3]) it was 0.5 to 2 µg/mL (≈ 0.923 to 3.69 µM).

With `C=C[C@]1(C)C[C@@H](OC(=O)COc2ccc3c(c2)B(O)N(C(=O)OC)N=C3)[C@]2(C)[C@H](C)CC[C@]3(CCC(=O)[C@H]32)[C@@H](C)[C@@H]1O` [Compound 91, Methyl 1-hydroxy-7-(2-(((3aR,4R,5R,7S,8S,9R,9aS,12R)-8-hydroxy-4,7,9,12-tetramethyl-3-oxo-7-vinyldecahydro-4,9a-propanocyclopenta[8]annulen-5-yl)oxy)-2-oxoethoxy)benzo[d][1,2,3]diazaborinine-2(1H)-carboxylate], the MIC in test [1] was under 0.25 µg/mL; in test [2] (setting [3]), 0.5 to 2 µg/mL (≈ 0.861 to 3.45 µM).

For `C=C[C@]1(C)C[C@@H](OC(=O)COc2cc(F)c3c(c2)COB3O)[C@]2(C)[C@H](C)CC[C@]3(CCC(=O)[C@H]32)[C@@H](C)[C@@H]1O` [Compound 33, (3aR,4R,5R,7S,8S,9R,9aS,12R)-8-hydroxy-4,7,9,12-tetramethyl-3-oxo-7-vinyldecahydro-4,9a-propanocyclopenta[8]annulen-5-yl 2-((7-fluoro-1-hydroxy-1,3-dihydrobenzo[c][1,2]oxaborol-5-yl)oxy)acetate], the MIC was under 0.25 µg/mL in test [1] and 0.5 to 2 µg/mL (≈ 0.946 to 3.78 µM) in test [2] (setting [3]).
